Data taken from patent US11918582B2 (RAPT Therapeutics, Inc., priority 2021, dated 2024).
Counter-ions that a name gives are not always drawn.

Target: T1, human HPK1 (MAP4K1) (Homo sapiens, UniProt Q92918)
T1 construct: Recombinant human HPK1 kinase domain was obtained from ThermoFisher (Cat. #PV6357) and SignalChem (Cat. #M23-11G); purchased ThermoFisher; SignalChem PV6357; M23-11G
T1 sequence (Q92918 17-274 limits assumed): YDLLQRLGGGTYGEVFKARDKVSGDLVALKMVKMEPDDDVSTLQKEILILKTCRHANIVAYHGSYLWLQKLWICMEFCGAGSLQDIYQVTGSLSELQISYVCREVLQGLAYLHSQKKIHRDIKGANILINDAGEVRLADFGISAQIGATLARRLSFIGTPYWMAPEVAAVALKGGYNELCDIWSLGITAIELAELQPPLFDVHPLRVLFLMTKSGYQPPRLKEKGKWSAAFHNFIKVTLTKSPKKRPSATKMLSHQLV
Assay: Biochemical assay for activity against HPK1 (ADP-Glo, MBP substrate)
Conditions: recombinant human HPK1 kinase domain, 1 nM enzyme, ADP-Glo luminescence
Outline: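 Recombinant human HPK1 kinase domain (1 nM solution) preincubated 15 min at room temperature with compounds in pH 7.5 HEPES buffer with NaCl, TCEP, MgCl2, Tween-20, BSA. MBP substrate with ATP added, reaction run 2 h at room temperature. ADP formation read by ADP-Glo luminescence to give IC50.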

IC50 [nM] | SMILES
< 100 | COc1cc2c(cc1Nc1ncc3cnn(C[C@@H]4[C@@H](C)[C@H](O)CN4C(C)=O)c3n1)CN(C)CC2 [Example 164, 1-[(2S,3R,4R)-4-hydroxy-2-[[6-[(6-methoxy-2-methyl-3,4-dihydro-1H-isoquinolin-7-yl)amino]pyrazolo[3,4-d]pyrimidin-1-yl]methyl]-3-methyl-pyrrolidin-1-yl]ethenone]
100 to 250 | COc1cc2c(cc1Nc1ncc3cnn(C[C@H]4CCCCN4C(C)=O)c3n1)CN(C)CC2 [Example 211, 1-[(2R)-2-[[6-[(6-methoxy-2-methyl-3,4-dihydro-1H-isoquinolin-7-yl)amino]pyrazolo[3,4-d]pyrimidin-1-yl]methyl]-1-piperidyl]ethenone hydrochloride]
< 100 | COc1cc2c(cc1Nc1ncc3cnn(C(C)C(C)(C)C#N)c3n1)CN(C)CC2 (centres unmarked) [Example 151, 3-(6-((6-methoxy-2-methyl-1,2,3,4-tetrahydroisoquinolin-7-yl)amino)-1H-pyrazolo[3,4-d]pyrimidin-1-yl)-2,2-dimethylbutanenitrile hydrochloride]
< 100 | COc1cc2c(cc1Nc1ncc3cnn(C[C@@H]4C[C@@H]5C[C@@H]5N4C(C)=O)c3n1)CN(C)CC2 [Example 216, 1-[(1S,3S,5S)-3-[[6-[(6-methoxy-2-methyl-3,4-dihydro-1H-isoquinolin-7-yl)amino]pyrazolo[3,4-d]pyrimidin-1-yl]methyl]-2-azabicyclo[3.1.0]hexan-2-yl]ethanone]
< 100 | COc1cc2c(cc1Nc1ncc3cnn(C[C@@H]4CCC[C@@H]4C(=O)O)c3n1)CN(C)CC2 (racemic) [Example 162, Rac-cis-2-[[6-[(6-methoxy-2-methyl-3,4-dihydro-1H-isoquinolin-7-yl)amino]pyrazolo[3,4-d]pyrimidin-1-yl]methyl]cyclopentanecarboxylic Acid]
< 100 | COc1cc2c(cc1Nc1ncc3cnn(C[C@@H]4CCCN4C(C)=O)c3n1)C(C(F)(F)F)N(C)CC2 (stereo partly drawn) [Example 208, 1-((2S)-2-((6-((6-methoxy-2-methyl-1-(trifluoromethyl)-1,2,3,4-tetrahydroisoquinolin-7-yl)amino)-1H-pyrazolo[3,4-d]pyrimidin-1-yl)methyl)pyrrolidin-1-yl)ethan-1-one]
< 100 | COc1nc2c(cc1Nc1ncc3cnn(C[C@@H]4C[C@H](F)CN4C(C)=O)c3n1)CN(C)CC2 [Example 212, 1-[(2S,4S)-4-fluoro-2-[[6-[(2-methoxy-6-methyl-7,8-dihydro-5H-1,6-naphthyridin-3-yl)amino]pyrazolo[3,4-d]pyrimidin-1-yl]methyl]pyrrolidin-1-yl]ethenone]
< 100 | COc1cc2c(cc1Nc1ncc3cnn([C@H]4CC[C@@H](OC)CC4)c3n1)CN(C)CC2 [Example 46, 6-methoxy-N-(1-((1s,4s)-4-methoxycyclohexyl)-1H-pyrazolo[3,4-d]pyrimidin-6-yl)-2-methyl-1,2,3,4-tetrahydroisoquinolin-7-amine]
< 100 | COc1cc2c(cc1Nc1ncc3cnn(C[C@@H]4C[C@@H]4F)c3n1)CN(C)CC2 (racemic) [Example 207, N-(1-(((cis)-2-fluorocyclopropyl)methyl)-1H-pyrazolo[3,4-d]pyrimidin-6-yl)-6-methoxy-2-methyl-1,2,3,4-tetrahydroisoquinolin-7-amine]
< 100 | COc1cc2c(cc1Nc1ncc3cnn(C[C@@H]4[C@H](C)CCN4C(C)=O)c3n1)CN(C)CC2 [Example 189, 1-((2S,3R)-2-((6-((6-methoxy-2-methyl-1,2,3,4-tetrahydroisoquinolin-7-yl)amino)-1H-pyrazolo[3,4-d]pyrimidin-1-yl)methyl)-3-methylpyrrolidin-1-yl)ethan-1-one]
< 100 | COc1cc2c(cc1Nc1ncc3cnn(C[C@@H]4[C@@H](C)CCN4C(C)=O)c3n1)CN(C)CC2 (single isomer, unassigned) [Example 148]
